The source of these data is ChEMBL document CHEMBL3400026, “Synthesis of novel 24-amino-25,26,27-trinorlanost-8-enes: cytotoxic and apoptotic potential in U937 cells” (Bioorg Med Chem, 2015).

The test system of assay [1] is U-937. Nature of the assay: Induction of apoptosis in human U937 cells assessed as caspase 3/7 level at 12 ug/ml after 24 hrs by Caspase-Glo 3/7 assay relative to solvent control. The assay is classed as functional.
Assay [2] relates to U-937. Nature of the assay: Induction of apoptosis in human U937 cells assessed as condensed/fragmented nuclei at 12 ug/ml after 24 hrs using Hoechst 33342 staining by microscopy relative to solvent control. The assay is classed as functional.
Assay [3] has as its system U-937. In words: Induction of apoptosis in human U937 cells assessed as DNA fragmentation measured as DNA laddering at 12 ug/ml after 24 hrs by agarose gel electophoresis relative to solvent control. The assay is classed as functional, cell-based.
Assay [4] is described as follows: Cytotoxicity against human U937 cells after 24 hrs by MTT assay. The following applies: U-937, 24 h. It is filed as functional, cell-based.
Assay [5] has as its system U-937. In words: Induction of apoptosis in human U937 cells assessed as condensed/fragmented nuclei at 10 ug/ml after 24 hrs using Hoechst 33342 staining by microscopy relative to solvent control. It is filed as functional.
The test system of assay [6] is U-937. Nature of the assay: Induction of apoptosis in human U937 cells assessed as caspase 3/7 level at 10 ug/ml after 24 hrs by Caspase-Glo 3/7 assay relative to solvent control. It is filed as functional.
The subject of assay [7] is U-937. Nature of the assay: Induction of apoptosis in human U937 cells assessed as DNA fragmentation measured as DNA laddering at 5 ug/ml after 24 hrs by agarose gel electophoresis relative to solvent control. It is filed as functional, cell-based.
The test system of assay [8] is U-937. Nature of the assay: Induction of apoptosis in human U937 cells assessed as condensed/fragmented nuclei at 5 ug/ml after 24 hrs using Hoechst 33342 staining by microscopy relative to solvent control. The assay is classed as functional.
Assay [9] relates to U-937. In words: Induction of apoptosis in human U937 cells assessed as caspase 3/7 level at 5 ug/ml after 24 hrs by Caspase-Glo 3/7 assay relative to solvent control. The assay is classed as functional.
Assay [10] deals with U-937. In words: Induction of apoptosis in human U937 cells assessed as condensed/fragmented nuclei at 25 ug/ml after 24 hrs using Hoechst 33342 staining by microscopy relative to solvent control. It is filed as functional.
The subject of assay [11] is U-937. In words: Induction of apoptosis in human U937 cells assessed as caspase 3/7 level at 25 ug/ml after 24 hrs by Caspase-Glo 3/7 assay relative to solvent control. It is filed as functional.
Assay [12] concerns U-937. Nature of the assay: Induction of apoptosis in human U937 cells assessed as DNA fragmentation measured as DNA laddering at 10 ug/ml after 24 hrs by agarose gel electophoresis relative to solvent control. The assay is classed as functional, cell-based.
In assay [13] the test system is U-937. In words: Induction of apoptosis in human U937 cells assessed as DNA fragmentation measured as DNA laddering at 25 ug/ml after 24 hrs by agarose gel electophoresis relative to solvent control. It is filed as functional, cell-based.
The subject of assay [14] is U-937. Nature of the assay: Induction of apoptosis in human U937 cells assessed as caspase 3/7 level at 50 ug/ml after 24 hrs by Caspase-Glo 3/7 assay relative to solvent control. It is filed as functional.
Assay [15] has as its system U-937. Nature of the assay: Induction of apoptosis in human U937 cells assessed as condensed/fragmented nuclei at 50 ug/ml after 24 hrs using Hoechst 33342 staining by microscopy relative to solvent control. It is filed as functional.

SMILES strings stand for the structures. Calls of active or inactive are those of the source. The calls are words filed in the database; no cut-off is given here.

`CC(C)CCC[C@@H](C)[C@H]1CC[C@H]2[C@@H]3C(=O)C=C4C[C@@H](O)CC[C@]4(C)[C@H]3CC[C@]12C` [7-OXOCHOLESTEROL]: the Activity is 2.2% in the assay with U-937 [1] and 7.3% in the assay on U-937 [2]. In the assay on U-937 [3], the result was Active.
On to `CC(=O)O[C@H]1CC[C@]2(C)C3=C(CC[C@H]2C1(C)C)[C@]1(C)CC[C@H]([C@H](C)CCCN2CCOCC2)[C@@]1(C)CC3`, for which, in assay [4], 148 µM corresponded to half-maximal inhibition (IC50).
Consider `COc1cc([C@@H]2c3cc4c(cc3[C@@H](O[C@@H]3O[C@@H]5CO[C@@H](C)O[C@H]5[C@H](O)[C@H]3O)[C@H]3COC(=O)[C@H]23)OCO4)cc(OC)c1O` [ETOPOSIDE], for which the Activity amounted to 24.8% in the assay on U-937 [5], 5.9% in the assay on U-937 [6], 23.7% with U-937 [8] and 6.4% with U-937 [9]. Moreover, the outcome in the assay with U-937 [7] was Active. Further, in [4], the IC50 (as a rule, the midpoint of a concentration-inhibition curve) came out at 1.5 µM.
In the case of `C[C@H](CCCN1CCCCC1)[C@H]1CC[C@@]2(C)C3=C(CC[C@]12C)[C@@]1(C)CC[C@H](O)C(C)(C)[C@@H]1CC3`, the Activity was 5.5% with U-937 [5], 2.1% in the assay on U-937 [6], 7.4% in the assay with U-937 [8] and 2% in the assay with U-937 [9]. Further, the outcome in the assay with U-937 [7] was Active. In addition, the IC50 in [4] turned out to be 1.9 µM.
As for `CCN(CC)CCC[C@@H](C)[C@H]1CC[C@@]2(C)C3=C(CC[C@]12C)[C@@]1(C)CC[C@H](OC(C)=O)C(C)(C)[C@@H]1CC3`, the Activity with U-937 [5] came to 6.9%; with U-937 [10], 6.6%; in the assay with U-937 [6], 4.9%; in the assay on U-937 [11], 7.3%. The same compound returned an IC50 in [4] of 16.4 µM. Besides, the outcome in the assay with U-937 [12] was Active.
`C[C@H](CCCN1CCOCC1)[C@H]1CC[C@@]2(C)C3=C(CC[C@]12C)[C@@]1(C)CC[C@H](O)C(C)(C)[C@@H]1CC3`: in assay [4], the IC50 worked out at 128 µM.
On to `CC(=O)O[C@H]1CC[C@]2(C)C3=C(CC[C@H]2C1(C)C)[C@]1(C)CC[C@H]([C@H](C)CCCN2CCN(CCO)CC2)[C@@]1(C)CC3`, for which the Activity turned out to be 10.2% in the assay with U-937 [5], 7.8% in the assay with U-937 [6], 7.3% in the assay on U-937 [8] and 6.6% with U-937 [9]. Further, in assay [4], half-maximal inhibition (IC50) was put at 9.3 µM. In the assay on U-937 [12], the result was Active.
In the case of `CCN(CC)CCC[C@@H](C)[C@H]1CC[C@@]2(C)C3=C(CC[C@]12C)[C@@]1(C)CC[C@H](O)C(C)(C)[C@@H]1CC3`, the Activity in the assay with U-937 [5] came out at 3%; in the assay with U-937 [6], 2.4%; with U-937 [8] it was 3.7%; in the assay with U-937 [9] it was 2.3%. Moreover, the outcome with U-937 [7] was Active. The IC50 in assay [4] amounted to 3.5 µM.
For the compound `CC[N+]([O-])(CC)CCC[C@@H](C)[C@H]1CC[C@@]2(C)C3=C(CC[C@]12C)[C@@]1(C)CC[C@H](OC(C)=O)C(C)(C)[C@@H]1CC3`, the Activity came to 7% in the assay on U-937 [10], 4.3% with U-937 [14], 5% in the assay on U-937 [15] and 4.4% in the assay on U-937 [11]. For the same compound, the outcome in the assay with U-937 [13] was Active. This compound also gave an IC50 in assay [4] of 21.1 µM.
Regarding `CC(=O)O[C@H]1CC[C@]2(C)C3=C(CC[C@H]2C1(C)C)[C@]1(C)CC[C@H]([C@H](C)CCCN2CCCCC2)[C@@]1(C)CC3`, the Activity in the assay on U-937 [10] stood at 8.8%; in the assay with U-937 [14] it was 3.4%; in the assay with U-937 [15] it was 10.6%; in the assay on U-937 [11] it was 1.9%. For the same compound, the outcome in the assay on U-937 [13] was Active. Moreover, the IC50 in assay [4] stood at 14.9 µM.
In turn, `C[C@H](CCCNc1ccccc1)[C@H]1CC[C@@]2(C)C3=C(CC[C@]12C)[C@@]1(C)CC[C@H](O)C(C)(C)[C@@H]1CC3` returned an IC50 in assay [4] of 132 µM.
On to `C[C@H](CCCN1CCN(CCO)CC1)[C@H]1CC[C@@]2(C)C3=C(CC[C@]12C)[C@@]1(C)CC[C@H](O)C(C)(C)[C@@H]1CC3`, for which the Activity was found to be 6.6% in the assay on U-937 [5], 1.3% with U-937 [6], 7.6% with U-937 [8] and 1.2% in the assay on U-937 [9]. This compound registered an IC50 in assay [4] of 2.7 µM.
Turning to `CC(=O)O[C@H]1CC[C@]2(C)C3=C(CC[C@H]2C1(C)C)[C@]1(C)CC[C@H]([C@H](C)CCCNc2ccccc2)[C@@]1(C)CC3`, 367 µM corresponded to half-maximal inhibition in assay [4] (IC50).
